In patent US20120101109A1, “ETHANOLAMINE SALT OF N- (3-METHOXY-5-METHYLPYRAZIN-2YL) -2- (4-[1, 3, 4-OXADIAZOLE-2-YL] PHENYL) PYRIDINE-3- SULPHONAMIDE” (ASTRAZENECA AB, priority 2005, published 2012):
Marks after values point to notes of the source that are not given here.

Experiments:
[1] = Stability of the salts on storage, assessed by NMR; details: for stability of the salt: prolonged storage at ambient (400 MHz proton NMR), ammonium salt also vacuum drying at 50° C. overnight
[2] = Intrinsic dissolution rate, fibre optic UV probe with SOTAX dissolution apparatus; assay type: physicochemical; details: pH 6.5 buffer, 37° C., 50 mg discs, UV at 260 nm, triplicate
Protocol: The intrinsic dissolution rate was determined by using a fibre optic UV probe, measuring at 260 nm, with a SOTAX dissolution apparatus. Each of the pots in the dissolution batch was filled with 500 ml of pH 6.5 buffer and heated to 37° C. 50 mg Of each compound was weighed out in triplicate. Each of these samples was placed into a 4 mm dye and compressed at 50 psi for 5 minutes to produce suitable discs. These discs were then placed into the dissolution bath and the UV absorbance measured at regular intervals. Standards were prepared at approximately 20 μg/ml concentrations in pH 6.5 buffer. Scans of the background and corresponding standards were taken and a standard recovery check was produced.

[3] = Solubility of the salts in water, N-methylpyrrolidinone and IMS

| stability of the salt assessed by NMR ([1]; 2 days at 50° C.) | IDR (intrinsic dissolution rate) [2] | stability of the salt [1] | solubility in N-methylpyrrolidinone ([3]; N-methylpyrrolidinone) | solubility in water ([3]; water) | Compound |
| --- | --- | --- | --- | --- | --- |
| stable | 0.84 mg/min/cm^2 |  |  |  | COc1nc(C)cnc1NS(=O)(=O)c1cccnc1-c1ccc(-c2nnco2)cc1.NCCO [Compound (I) Ethanolamine Salt] |
|  | 0.14 mg/min/cm^2 | relatively unstable | is not | very water soluble | COc1nc(C)cnc1NS(=O)(=O)c1cccnc1-c1ccc(-c2nnco2)cc1.N [Compound (I) Ammonium Salt] |
|  | 1.37 ^a mg/min/cm^2 | very stable |  |  | COc1nc(C)cnc1[N-]S(=O)(=O)c1cccnc1-c1ccc(-c2nnco2)cc1.[Na+] [Compound (I) Sodium Salt] |
|  | 0.05 mg/min/cm^2 |  |  |  | COc1nc(C)cnc1NS(=O)(=O)c1cccnc1-c1ccc(-c2nnco2)cc1 [Compound (I), N-(3-methoxy-5-methylpyrazin-2-yl)-2-(4-[1,3,4-oxadiazol-2-yl]phenyl)pyridine-3-sulphonamide] |
